What was measured:
Assay type in all cases: cell-based
E. faecalis = experiment: Bacteriostatic screening (growth, OD630) against E. faecalis; conditions: for IC50: 24 h, IC50 generated when inhibition at 250 μM was higher than 80%; for inhibition rate (%) EF: at 250 μM of the tested compound
Procedure: (§1) The strategy in this study was to submit these synthesized compounds to a preliminary screening test against E. coli, S. aureus and E. faecalis (ciprofloxacin was used as a reference compound; see Table 1). […] The tested compound or ciprofloxacin (positive drug) was dissolved in DMSO and diluted with LB liquid medium into a stock solution containing 20% DMSO before use; the stock solution of the carrier was 20% DMSO in LB liquid medium. All the experiments, including blank controls, were performed in triplicate. Bacteriostatic screening was performed by applying a modified protocol of the National Committee on Clinical Laboratory Standards (NCCLS).[29] Briefly, E. coli, S. aureus and E. faecalis cells (American Type Culture Collection, ATCC) were grown in LB plate medium for one passage, then seeded in LB liquid medium and cultured at 37 °C for 12 h. After being diluted 1000 times, 190 μL diluted cells were aliquoted to 96-well plates; then, 10 μL stock solution of carrier or a gradient amount of the tested compound or the positive compound, ciprofloxacin, were added; the final concentration of DMSO was 1% in all wells. The blank controls contained 1% DMSO and LB medium but no bacterial cells.

S. aureus = experiment: Bacteriostatic screening (growth, OD630) against S. aureus; conditions: for inhibition rate (%) SA: at 250 μM of the tested compound; for inhibition rate SA (symbol /): at 250 μM of tested compound
Procedure: as §1

E. coli = experiment: Bacteriostatic screening (growth, OD630) against E. coli; conditions: for inhibition rate EC (symbol /): at 250 μM of tested compound; for inhibition rate (%) EC: at 250 μM of the tested compound
Procedure: as §1

Compound	IC50 (E. faecalis) [µM]	inhibition rate EC (symbol /) (E. coli)	inhibition rate (%) EF (E. faecalis)	inhibition rate (%) EC (E. coli)	inhibition rate (%) SA (S. aureus)	further results
C=C1CCC2C(C)(CO)C(O)CCC2(C)C1CC=C1C(=O)OCC1Oc1ccccc1OC (stereo not drawn) [6a12, (14α)-(2′-Methoxy)phenoxy-andrographolide]	75.6 ± 17.8	/ (“/”represents no inhibition or lower than 10% inhibition rate at 250 μM of tested compound)				inhibition rate (%) SA (S. aureus; 250 µM): (14) %
C=C1CCC2C3(C)COC(C)(C)OC3CCC2(C)C1CC=C1C(=O)OCC1Oc1ccc(OC)cc1 (stereo not drawn) [5b11, (14β)-(4′-Methoxy)phenoxy-3,19-acetonylidene andrographolide]		/ (“/”represents no inhibition or lower than 10% inhibition rate at 250 μM of tested compound)	(39) %			inhibition rate SA (symbol /) (S. aureus): / (“/”represents no inhibition or lower than 10% inhibition rate at 250 μM of tested compound)
C=C1CCC2C(C)(CO)C(O)CCC2(C)C1CC=C1C(=O)OCC1Oc1ccccc1C(=O)OCC (stereo not drawn) [6b8, (14β)-(2′-Carboxyethyl ester)phenoxy-andrographolide]	89.7 ± 12			(21) %		inhibition rate SA (symbol /) (S. aureus): / (“/”represents no inhibition or lower than 10% inhibition rate at 250 μM of tested compound)
C=C1CCC2C3(C)COC(C)(C)OC3CCC2(C)C1CC=C1C(=O)OCC1Oc1ccc([N+](=O)[O-])cc1F (stereo not drawn) [5b2, (14β)-(2′-Fluoro-4′-nitro)phenoxy-3,19-acetonylidene andrographolide]			(56) %	(11) %	(26) %	
C=C1CCC2C(C)(CO)C(O)CCC2(C)C1CC=C1C(=O)OCC1Oc1ccc([N+](=O)[O-])c(F)c1 (stereo not drawn) [6b4, (14β)-(3′-Fluoro-4′-nitro)phenoxy-andrographolide]	19.6 ± 2.7			(60) %	(28) %	
C=C1CCC2C(C)(CO)C(O)CCC2(C)C1CC=C1C(=O)OCC1Oc1ccccc1OC (stereo not drawn) [6b12, (14β)-(2′-Methoxy)phenoxy-andrographolide]	20.8 ± 4.5			(12) %		inhibition rate (%) SA (S. aureus; 250 µM): (13) %
(14α)-(2′-Fluoro-4′-nitro)phenoxy-3,19-acetonylidene andrographolide [5a2]	56.7 ± 6.5			(20) %	(20) %	
C=C1CCC2C3(C)COC(C)(C)OC3CCC2(C)C1CC=C1C(=O)OCC1Oc1ccc([N+](=O)[O-])c(F)c1 (stereo not drawn) [5a4, (14α)-(3′-Fluoro-4′-nitro)phenoxy-3,19-acetonylidene andrographolide]		/ (“/”represents no inhibition or lower than 10% inhibition rate at 250 μM of tested compound)	(46) %			inhibition rate SA (symbol /) (S. aureus): / (“/”represents no inhibition or lower than 10% inhibition rate at 250 μM of tested compound)
C=C1CCC2C(C)(CO)C(O)CCC2(C)C1CC=C1C(=O)OCC1Oc1ccc(C(=O)OCC)cc1 (stereo not drawn) [6b9, (14β)-(4′-Carboxyethyl ester)phenoxy-andrographolide]	53.3 ± 4.1			(17) %	(40) %	
C=C1CCC2C3(C)COC(C)(C)OC3CCC2(C)C1CC=C1C(=O)OCC1Oc1cccc2ccccc12 (stereo not drawn) [5b14, (14β)-(Naphthyl-1′-oxy)-3,19-acetonylidene andrographolide]		/ (“/”represents no inhibition or lower than 10% inhibition rate at 250 μM of tested compound)	(47) %			inhibition rate SA (symbol /) (S. aureus): / (“/”represents no inhibition or lower than 10% inhibition rate at 250 μM of tested compound)
C=C1CCC2C(C)(CO)C(O)CCC2(C)C1CC=C1C(=O)OCC1Oc1ccc(OC)cc1 (stereo not drawn) [6b11, (14β)-(4′-Methoxy)phenoxy-andrographolide]		/ (“/”represents no inhibition or lower than 10% inhibition rate at 250 μM of tested compound)	(17) %			inhibition rate SA (symbol /) (S. aureus): / (“/”represents no inhibition or lower than 10% inhibition rate at 250 μM of tested compound)
(14β)-(3′-Fluoro-4′-nitro)phenoxy-3,19-acetonylidene andrographolide [5b4]			(73) %	(19) %	(15) %	
C=C1CCC2C(C)(CO)C(O)CCC2(C)C1CC=C1C(=O)OCC1Oc1ccccc1[N+](=O)[O-] (stereo not drawn) [6b6, (14β)-(2′-Nitro)phenoxy-andrographolide]	15.9 ± 9			(28) %	(12) %	
C=C1CCC2C(C)(CO)C(O)CCC2(C)C1CC=C1C(=O)OCC1Oc1ccc([N+](=O)[O-])cc1F (stereo not drawn) [6a2, (14α)-(2′-Fluoro-4′-nitro)phenoxy-andrographolide]	38.7 ± 4.5					inhibition rate (%) SA (S. aureus; 250 µM): (65) %; inhibition rate (%) EC (E. coli; 250 µM): (67) %
C=C1CCC2C(C)(CO)C(O)CCC2(C)C1CC=C1C(=O)OCC1Oc1cccc2ccccc12 (stereo not drawn) [6b14, (14β)-(Naphthyl-1′-oxy)andrographolide]			(50) %	(35) %	(18) %	
C=C1CCC2C3(C)COC(C)(C)OC3CCC2(C)C1CC=C1C(=O)OCC1Oc1ccccc1OC (stereo not drawn) [5a12, (14α)-(2′-Methoxy)phenoxy-3,19-acetonylidene andrographolide]		/ (“/”represents no inhibition or lower than 10% inhibition rate at 250 μM of tested compound)				inhibition rate (%) EF (E. faecalis; 250 µM): (49) %; inhibition rate SA (symbol /) (S. aureus): / (“/”represents no inhibition or lower than 10% inhibition rate at 250 μM of tested compound)
C=C1CCC2C3(C)COC(C)(C)OC3CCC2(C)C1CC=C1C(=O)OCC1Oc1ccccc1OC (stereo not drawn) [5b12, (14β)-(2′-Methoxy)phenoxy-3,19-acetonylidene andrographolide]		/ (“/”represents no inhibition or lower than 10% inhibition rate at 250 μM of tested compound)			(24) %	inhibition rate (%) EF (E. faecalis; 250 µM): (52) %
C=C1CCC2C(C)(CO)C(O)CCC2(C)C1CC=C1C(=O)OCC1Oc1ccc([N+](=O)[O-])c(OC)c1 (stereo not drawn) [6a5, (14α)-(3′-methoxy-4′-nitro)phenoxy-andrographolide]	50.4 ± 2.7					inhibition rate (%) SA (S. aureus; 250 µM): (10) %; inhibition rate (%) EC (E. coli; 250 µM): (11) %
(14β)-(2′-Carboxy ethyl ester-4′-nitro)phenoxy-andrographolide [6b1]	27.7 ± 3.5			(17) %	(40) %	
C=C1CCC2C3(C)COC(C)(C)OC3CCC2(C)C1CC=C1C(=O)OCC1Oc1ccc([N+](=O)[O-])cc1C(=O)OC (stereo not drawn) [5b1, (14β)-(2′-Carboxymethyl ester-4′-nitro)phenoxy-3,19-acetonylidene andrographolide]			(56) %	(22) %		inhibition rate (%) SA (S. aureus; 250 µM): (20) %
C=C1CCC2C(C)(CO)C(O)CCC2(C)C1CC=C1C(=O)OCC1Oc1ccc([N+](=O)[O-])c(OC)c1 (stereo not drawn) [6b5, (14β)-(3′-Methoxy-4′-nitro)phenoxy-andrographolide]	21.8 ± 2.5					inhibition rate (%) SA (S. aureus; 250 µM): (37) %; inhibition rate (%) EC (E. coli; 250 µM): (23) %
C=C1CCC2C(C)(CO)C(O)CCC2(C)C1CC=C1C(=O)OCC1Oc1ccnc2ccccc12 (stereo not drawn) [6b16, (14β)-(Quinolyl-4′-oxy)andrographolide]	58.5 ± 4.2	/ (“/”represents no inhibition or lower than 10% inhibition rate at 250 μM of tested compound)				inhibition rate SA (symbol /) (S. aureus): / (“/”represents no inhibition or lower than 10% inhibition rate at 250 μM of tested compound)
C=C1CCC2C3(C)COC(C)(C)OC3CCC2(C)C1CC=C1C(=O)OCC1Oc1cccc([N+](=O)[O-])c1 (stereo not drawn) [5b7, (14β)-(3′-Nitro)phenoxy-3,19-acetonylidene andrographolide]		/ (“/”represents no inhibition or lower than 10% inhibition rate at 250 μM of tested compound)				inhibition rate EF (symbol /) (E. faecalis; at 250 μM of tested compound): / (“/”represents no inhibition or lower than 10% inhibition rate at 250 μM of tested compound); inhibition rate SA (symbol /) (S. aureus): / (“/”represents no inhibition or lower than 10% inhibition rate at 250 μM of tested compound)
C=C1CCC2C3(C)COC(C)(C)OC3CCC2(C)C1CC=C1C(=O)OCC1Oc1ccccc1C(=O)OCC (stereo not drawn) [5a8, (14α)-(2′-Carboxyethyl ester)phenoxy-3,19-acetonylidene andrographolide]			(33) %	(32) %	(20) %	
C=C1CCC2C3(C)COC(C)(C)OC3CCC2(C)C1CC=C1C(=O)OCC1Oc1cccnc1[N+](=O)[O-] (stereo not drawn) [5b15, (14β)-(2′-Nitro-pyridinyl-3′-oxy)-3,19-acetonylidene andrographolide]	38.4 ± 3.4	/ (“/”represents no inhibition or lower than 10% inhibition rate at 250 μM of tested compound)				inhibition rate (%) SA (S. aureus; 250 µM): (33) %
C=C1CCC2C3(C)COC(C)(C)OC3CCC2(C)C1CC=C1C(=O)OCC1Oc1ccc([N+](=O)[O-])c(OC)c1 (stereo not drawn) [5a5, (14α)-(3′-Methoxy-4′-nitro)phenoxy-3,19-acetonylidene andrographolide]						inhibition rate (%) EF (E. faecalis; 250 µM): (73) %; inhibition rate (%) SA (S. aureus; 250 µM): (10) %; inhibition rate (%) EC (E. coli; 250 µM): (12) %
(14β)-(4′-Carboxy ethyl ester)phenoxy-3,19-acetonylidene andrographolide [5b9]		/ (“/”represents no inhibition or lower than 10% inhibition rate at 250 μM of tested compound)	(42) %		(15) %	
